{
  "source": "patent US20100048604A1",
  "about": "“Ligands for Aldoketoreductases” (priority 2004, published 2010)",
  "format_in_all_cases": "biochemical",
  "details_in_all_cases": "12 hour incubation, 30-50 μM substrate, pH 7, 250 μM NAD(P)H",
  "key": {"[1]": {"molecular_target": "T1, Thermoanaerobium brockii alcohol dehydrogenase (TBAD) (Thermoanaerobacter brockii, UniProt P14941)", "T1 construct": "purchased Sigma (St. Louis, Mo.) Lot Number 033K4093 (catalogue number not given)", "T1 sequence (P14941 1-352)": "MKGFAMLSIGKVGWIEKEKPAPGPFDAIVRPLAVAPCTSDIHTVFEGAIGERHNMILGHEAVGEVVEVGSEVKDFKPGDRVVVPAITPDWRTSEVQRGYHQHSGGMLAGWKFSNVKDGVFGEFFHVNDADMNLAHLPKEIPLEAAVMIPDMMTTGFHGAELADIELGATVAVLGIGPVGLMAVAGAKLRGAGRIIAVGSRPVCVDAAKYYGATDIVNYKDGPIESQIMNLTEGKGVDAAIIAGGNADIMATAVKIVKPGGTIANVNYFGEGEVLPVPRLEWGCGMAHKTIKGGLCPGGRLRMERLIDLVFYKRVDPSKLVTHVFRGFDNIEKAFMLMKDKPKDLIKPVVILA", "test": "Enzymatic screening of probes 1-7 against a panel of oxidoreductases", "method": "(§1) FIG. 4. Screening of probes 1-7 against a panel of oxidoreductases Percentage fluorescence increase after 12 hour incubation of 30-50 μM substrate, 100 mM phosphate buffer (pH 7), 250 μM NAD(P)H, and 100 nM enzyme. Substrates 1, 2, 3, and 4 monitored at λexc=340 nm, λem=440 nm. Substrates 5, 6, and 7 monitored at λexc=440 nm, λem=510 nm. 3HSD, 3α-hydroxysteroid dehydrogenase (PT, Pseudomonas testosteroni), HLAD, horse liver alcohol dehydrogenase, TBAD, Thermoanaerobium brockii alcohol dehydrogenase, BS 12HSD, Bacillus sp. 12α-hydroxysteroid dehydrogenase, ABAD, amyloid-β binding alcohol dehydrogenase (human), GDH, glycerol dehydrogenase, YADH, yeast alcohol dehydrogenase, LDH, lactate dehydrogenase.\n(§2) Probes 1-7 (see FIG. 3) were subsequently tested against a collection of dehydrogenases in the presence of NAD(P)H; the extent of reduction was assessed by the measurement of fluorescence intensity at the emission maximum of each probe (FIG. 4). This assay included enzymes from two major oxidoreductase superfamilies, the short chain alcohol dehydrogenases (SDR) and the aldo-keto reductases (AKR), ranging from bacterial to mammalian and human enzymes.\n(§3) Horse Liver alcohol dehydrogenase (Lot Number 51K7520), Thermoanaerobium brockii NADP^+ dependent alcohol dehydrogenase (Lot Number 033K4093), Pseudomonas testosteroni 3α-hydroxysteroid dehydrogenase (Lot Number 053K8624), and Bacillus sphaericus 12α-hydroxysteroid dehydrogenase (Lot Number 70K16621) were purchased from Sigma (St. Louis, Mo.). Yeast alcohol dehydrogenase (Lot Number 93122920), glycerol dehydrogenase (Lot Number 92110122), (D)-lactate dehydrogenase (Lot Number 92419236), (L)-lactate dehydrogenase (Lot Number 92801821), NAD^+, NADP^+, NADH, and NADPH were purchased from Roche. Enzyme activity was confirmed by compliance to supplier's quality control assays prior to usage. Rat and human 3α-hydroxysteroid dehydrogenases were provided by Professor Trevor Penning (University of Pennsylvania School of Medicine) and human amyloid-β peptide binding alcohol dehydrogenase was supplied by Professor Shi Du Yan (Columbia University School for Physicians and Surgeons).\n(§4) Enzymatic assays were performed in triplicate on selected fluorogenic substrates according to the following protocol. To each well of a FALCON 96-well black flat bottom plate was added (1) 40 μL of 500 mM potassium phosphate buffer pH 7.0, (2) 113 μL of double deionized water, (3) 25 μL of 2 mM NADH (except for Pseudomonas testosteroni 3α-hydroxysteroid dehydrogenase, rat 3α-hydroxysteroid dehydrogenase, and Thermoanaerobium brockii NADP^+ dependent alcohol dehydrogenase, in which cases 2 mM of NADPH was used), (4) 2 μL of a 3-5 mM solution of substrate in DMSO, and (5) 20 μL of a 40-50 μg/mL solution of enzyme. Reaction volumes were mixed thoroughly after addition of cofactor, substrate, and enzyme and allowed to react 12 hours at 25° C. Scanning of the 96-well plate was performed by the MicroMax 384 connected to a Jobin Yvon Fluorolog through F-3000 fiber optic cables.\n(§5) Initial Screening with Fluorogenic Substrates: Screening of the first fluorogenic substrates for enzymatic activity has been described above. In short, 200 μL enzymatic assay volumes containing 100 mM potassium phosphate buffer (pH 7), 250 μM NAD(P)H cofactor, and 30-50 μM of ketones (1-7) were incubated for 12 hours on a black FALCON 96-well plate. Formation of the alcohol reduction product was determined by reading the fluorescence arising from excitation at the corresponding alcohol at either 340 nm (27-30) or 440 nm (31-33)."}, "[2]": {"molecular_target": "T2, rat 3α-hydroxysteroid dehydrogenase (Rattus norvegicus, UniProt P23457)", "T2 construct": "gift of Professor Trevor Penning (University of Pennsylvania School of Medicine)", "T2 sequence (P23457 1-322)": "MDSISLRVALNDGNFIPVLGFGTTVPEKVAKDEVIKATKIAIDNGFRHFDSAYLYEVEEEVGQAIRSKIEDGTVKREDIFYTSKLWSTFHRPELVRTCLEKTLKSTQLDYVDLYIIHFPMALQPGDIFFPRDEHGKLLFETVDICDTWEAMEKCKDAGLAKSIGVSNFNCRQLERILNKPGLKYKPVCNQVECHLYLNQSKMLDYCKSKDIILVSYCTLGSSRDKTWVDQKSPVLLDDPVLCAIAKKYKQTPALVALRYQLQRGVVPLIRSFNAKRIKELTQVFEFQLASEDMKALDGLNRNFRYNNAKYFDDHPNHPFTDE", "test": "Enzymatic screening of probes 1-7 against a panel of oxidoreductases", "method": "as §1, §2, §3, §4, §5"}, "[3]": {"molecular_target": "T3, Pseudomonas testosteroni 3α-hydroxysteroid dehydrogenase (Comamonas testosteroni, UniProt P80702)", "T3 construct": "purchased Sigma (St. Louis, Mo.) Lot Number 053K8624 (catalogue number not given)", "T3 sequence (P80702 whole entry)": "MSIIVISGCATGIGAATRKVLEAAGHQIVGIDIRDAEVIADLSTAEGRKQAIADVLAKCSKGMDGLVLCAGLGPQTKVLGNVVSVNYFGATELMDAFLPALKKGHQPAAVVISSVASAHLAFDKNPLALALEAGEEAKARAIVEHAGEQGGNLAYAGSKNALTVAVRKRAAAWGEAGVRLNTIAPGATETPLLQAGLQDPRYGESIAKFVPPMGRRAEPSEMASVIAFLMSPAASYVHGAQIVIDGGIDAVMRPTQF", "test": "Enzymatic screening of probes 1-7 against a panel of oxidoreductases", "method": "as §1, §2, §3, §4, §5"}, "[4]": {"molecular_target": "T4, horse liver alcohol dehydrogenase (HLAD) (Equus caballus, UniProt P00327)", "T4 construct": "purchased Sigma (St. Louis, Mo.) Lot Number 51K7520 (catalogue number not given)", "T4 sequence (P00327 2-375 limits assumed)": "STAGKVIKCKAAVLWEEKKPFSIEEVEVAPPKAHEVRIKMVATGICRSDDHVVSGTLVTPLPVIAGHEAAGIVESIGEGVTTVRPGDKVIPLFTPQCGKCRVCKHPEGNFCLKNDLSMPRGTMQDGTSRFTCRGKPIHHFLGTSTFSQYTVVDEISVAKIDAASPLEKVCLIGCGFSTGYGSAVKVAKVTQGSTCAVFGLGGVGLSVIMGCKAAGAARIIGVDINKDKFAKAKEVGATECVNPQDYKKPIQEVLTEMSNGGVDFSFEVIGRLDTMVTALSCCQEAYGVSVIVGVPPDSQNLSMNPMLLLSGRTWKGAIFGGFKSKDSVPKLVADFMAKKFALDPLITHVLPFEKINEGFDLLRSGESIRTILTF", "test": "Enzymatic screening of probes 1-7 against a panel of oxidoreductases", "method": "as §1, §2, §3, §4, §5"}, "[5]": {"system": "panel of oxidoreductases", "test": "Enzymatic screening of probes 1-7 against a panel of oxidoreductases (enzymes other than 3α-HSDs)", "method": "as §1\nProbes 1-7 (see FIG. 3) were subsequently tested against a collection of dehydrogenases in the presence of NAD(P)H; the extent of reduction was assessed by the measurement of fluorescence intensity at the emission maximum of each probe (FIG. 4). […]\nInitial Screening with Fluorogenic Substrates: Screening of the first fluorogenic substrates for enzymatic activity has been described above. […] Formation of the alcohol reduction product was determined by reading the fluorescence arising from excitation at the corresponding alcohol at either 340 nm (27-30) or 440 nm (31-33)."}},
  "data": [
    {"smiles": "CC(=O)c1cc(=O)oc2c3c4c(cc12)CCCN4CCC3", "note": "[compound 5, 8-Acetyl-2,3,5,6-tetrahydro-1H,4H-11-oxa-3a-aza-benzo[de]anthracen-10-one]", "values": [
      {"measurement": "reduction of probe (fluorescence increase)", "setting": "[1]", "result": "not acceptant"},
      {"measurement": "reduction of probe (fluorescence increase)", "setting": "[2]", "result": "converted rapidly and selectively"},
      {"measurement": "reduction of probe (fluorescence increase)", "setting": "[3]", "result": "converted rapidly and selectively"},
      {"measurement": "reduction of probe (fluorescence increase)", "setting": "[4]", "result": "not acceptant"},
      {"measurement": "reduction of probe by the other enzymes of the panel", "setting": "[5]", "result": "No other enzymes examined in this assay catalyzed the reduction"}
    ]}
  ]
}
